Assay [1] has as its target T1, FVIIa and TF complex (Homo sapiens, UniProt P08709).
T1 construct: 50 μl of 16 nM FVIIa and TF complex solution
In words: Factor VII inhibition assay (IC50, Example 4). Type of assay: biochemical. How it is done:
(§1) This solution (2.05 mM) served as the stock solution for all the inhibition assays. The hydrolysis of chromogenic substrates was monitored at 405 nm. The reaction progress curves were recorded by reading the plates typically 90 times with 30 seconds to 2 minute intervals. The initial rate were determined by unweighted nonlinear least-squares fitting to a first order reaction in GraFit.
In the Factor VII assay, S-2288 (from Pharmacia), D-Ile-Pro-Arg-pNA was used at […] in deionized water as substrate. […] This dilution served as the first point of the inhibitor (20 μM). From this concentration point 6 more sequential dilutions were made with a dilution factor of 2. 50 μl of 16 nM FVIIa and TF complex solution and 40 μl of the inhibitor solutions were added into each well, the mixtures were incubated for 20 minutes before 10 μl of 20 mM S-2288 was added.

Assay [2] deals with T2, bovine factor Xa (Bos taurus, UniProt P00743).
T2 construct: 25 nM of bovine factor Xa (from Sigma); purchased Sigma
T2 sequence (P00743 234-492 limits assumed): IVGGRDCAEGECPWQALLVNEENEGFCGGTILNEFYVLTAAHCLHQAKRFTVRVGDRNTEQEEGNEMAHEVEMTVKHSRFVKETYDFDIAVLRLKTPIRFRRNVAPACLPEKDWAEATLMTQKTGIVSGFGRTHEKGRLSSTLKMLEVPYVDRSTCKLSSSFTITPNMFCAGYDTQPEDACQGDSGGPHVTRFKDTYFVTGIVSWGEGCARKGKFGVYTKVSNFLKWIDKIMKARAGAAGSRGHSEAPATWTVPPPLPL
T2 sequence (P00743 41-180 limits assumed): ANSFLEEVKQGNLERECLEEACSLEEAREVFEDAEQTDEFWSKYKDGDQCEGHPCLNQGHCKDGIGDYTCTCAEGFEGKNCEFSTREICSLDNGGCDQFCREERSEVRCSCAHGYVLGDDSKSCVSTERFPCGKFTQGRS
In words: Factor X inhibition assay (IC50, Example 4). Type of assay: biochemical. On the procedure: as §1
In the Factor X assay, buffer and substrate are the same as used for thrombin assay. A 1:100 dilution was made into pH 8.4 Tris buffer to serve as the first point. Seven dilutions with a dilution factor of 2 were made. The assay protocol is the same as for thrombin except 25 nM of bovine factor Xa (from Sigma) in pH 8.4 Tris buffer was used instead of thrombin.

Assay [3] concerns the target T3, Tissue Plasminogen Activator (t-PA) (Homo sapiens, UniProt P00750). In words: Tissue plasminogen activator inhibition assay (IC50, Example 4). Type of assay: biochemical. How it is done:
as §1
Buffer, substrate and the dilution scheme of structure (13b) were the same as utilized for Factor VII assay.

Assay [4] addresses T4, Plasmin (Bos taurus, UniProt P06868). In words: Plasmin inhibition assay (IC50, Example 4). In kind it is biochemical. On the procedure:
as §1
For dilutions of structure (13b) (see urokinase assay).

Assay [5] has as its target T5, bovine trypsin (Bos taurus, UniProt P00760).
T5 construct: purchased Sigma
T5 sequence (P00760 24-246): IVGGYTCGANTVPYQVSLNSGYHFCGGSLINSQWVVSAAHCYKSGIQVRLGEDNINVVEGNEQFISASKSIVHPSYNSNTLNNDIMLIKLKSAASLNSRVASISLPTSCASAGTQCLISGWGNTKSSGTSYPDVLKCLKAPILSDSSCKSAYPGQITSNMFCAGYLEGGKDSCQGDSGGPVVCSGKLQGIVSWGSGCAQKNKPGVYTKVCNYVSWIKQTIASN
In words: Trypsin inhibition assay (IC50, Example 4). In kind it is biochemical. On the procedure: as §1
In the trypsin assay, pH 7.8 Tris (0.10 M Tris and 0.02 M CaCl2) was utilized as the buffer. BAPNA (from Sigma) was used at 1 mg/ml in 1% DMSO (v/v) deionized water solution as substrate. The same dilutions of structure (13b) were made as for Factor VII assay.

Assay [6] has as its system control plasma. In words: Prothrombin time (PT) in control plasma. In kind it is biochemical. How it is done:
Then 200 μl of prewarmed (at 37° C. for ˜10 minutes) thromboplastin with calcium (from Sigma) was rapidly added into the plasma sample.

Assay [7] addresses T6, urokinase (Homo sapiens, UniProt P00749). In words: Urokinase inhibition assay (IC50, Example 4). Type of assay: biochemical. Also on record: purchased Sigma. How it is done:
as §1
In the urokinase assay, buffer was pH 8.8 0.05 M Tris and 0.05 M NaCl in deionized water. S-2444 (from Sigma), pyroGlu-Gly-Arg-pNA at 0.5 mM in water was utilized as substrate. The same dilution procedure was used as for Factor VII and Factor X. Assay protocol is the same as for thrombin except 18.5 nM of human urokinase (from Sigma) was utilized.

The target in assay [8] is T7, bovine thrombin (Bos taurus, UniProt P00735).
T7 construct: 6.4 NIH units of bovine thrombin (from Sigma); purchased Sigma
In words: Thrombin assay, hydrolysis of structure (11b) as proteolytic substrate. Type of assay: biochemical. How it is done: (§2) Both the thrombin and Factor VII assays of this experiment were carried out at 37° C. using a Hitachi UV/Vis spectrophotometer (model U-3000). Structure (11b) was dissolved in deionized water. The concentration was determined from the absorbance at 342 nm. […] Initial velocities were calculated from the initial linear portion of the reaction progress curve. Kinetic parameters were determined by unweighted nonlinear least-squares fitting of the simple Michaelis-Menten equation to the experimental data using GraFit (Version 3.0, Erithacus Software Limited).
For the thrombin assay, experiments were performed in pH 8.4 Tris buffer (Tris, 0.05M; NaCl, 0.15M). 6.4 NIH units of bovine thrombin (from Sigma) were dissolved into 10 ml of the assay buffer to yield 10 nM thrombin solution. […] The first two minutes of the reactions were recorded for initial velocity determination.
(§3) In both the thrombin and Factor VII assay of this experiment, (D)FPR-PNA was run as a control.

In assay [9] the target is T8, human Factor VIIa (FVIIa) and human tissue factor (TF) (Homo sapiens, UniProt P08709).
T8 construct: 10 μl of 20 μM human Factor VIIa (FVIIa)
T8 sequence (P08709 213-466 limits assumed): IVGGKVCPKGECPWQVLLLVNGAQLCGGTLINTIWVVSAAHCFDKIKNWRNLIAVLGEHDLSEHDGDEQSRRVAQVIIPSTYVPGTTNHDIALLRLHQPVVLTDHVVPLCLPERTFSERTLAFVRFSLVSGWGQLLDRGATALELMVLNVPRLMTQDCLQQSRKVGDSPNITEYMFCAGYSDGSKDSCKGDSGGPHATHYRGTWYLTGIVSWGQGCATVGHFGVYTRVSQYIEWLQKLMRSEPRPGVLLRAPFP
T8 sequence (P08709 61-212 limits assumed): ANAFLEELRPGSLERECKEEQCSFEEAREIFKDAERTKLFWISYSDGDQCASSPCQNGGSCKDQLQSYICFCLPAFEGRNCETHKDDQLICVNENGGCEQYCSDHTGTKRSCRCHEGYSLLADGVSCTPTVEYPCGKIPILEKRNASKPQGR
T8 sequence (P13726 33-295 partner): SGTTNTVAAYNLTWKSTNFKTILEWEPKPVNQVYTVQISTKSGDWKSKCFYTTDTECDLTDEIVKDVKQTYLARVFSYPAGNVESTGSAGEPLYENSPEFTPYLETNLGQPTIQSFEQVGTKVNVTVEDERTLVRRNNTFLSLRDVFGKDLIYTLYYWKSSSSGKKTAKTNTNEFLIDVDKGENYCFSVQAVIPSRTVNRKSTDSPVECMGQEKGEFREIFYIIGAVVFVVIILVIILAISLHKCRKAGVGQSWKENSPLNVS
In words: Factor VII assay, hydrolysis of structure (11b) as proteolytic substrate. In kind it is biochemical. The note with it: ratio of kcat/KM. On the procedure: as §2
For the Factor VII assay, pH 8.0 Tris buffer (0.05 M Tris, 5 mM CaCl2, 0.15 M NaCl, 0.1% TWEEN 20, 0.1% BSA) was used. 10 μl of 20 μM human Factor VIIa (FVIIa) and 22 μM of human tissue factor (TF) was brought to assay buffer to make 160 nM FVIIa and TF solutions, respectively. […] The initial 3 minutes reaction progress curves were recorded. […] The kcat/KM was calculated from the slope and found to be 17,500 M^−1s^−1.
as §3

The target in assay [10] is factor VII (Homo sapiens, UniProt P08709). In words: Factor VII inhibition assay (Ki, Example 5). Type of assay: biochemical. On the procedure:
(§4) The reaction progress curves were recorded by reading the plates, typically 60 times with 30 second to 2 minute intervals. Initial rates were determined by unweighted nonlinear least-squares fitting to a first order reaction in GraFit (Erithacus Software Limited, London, England).
From this concentration point seven more sequential dilutions were made for the assay.

Assay [11] addresses factor X (Bos taurus, UniProt P00743). In words: Factor X inhibition assay (Ki, Example 5), bovine plasma enzyme. As to conditions: bovine plasma enzyme (Example 5 protocol). Type of assay: biochemical. How it is done:
The hydrolysis of chromogenic substrates was monitored at 405 nm. The reaction progress curves were recorded by reading the plates, typically 60 times with 30 second to 2 minute intervals. Initial rates were determined by unweighted nonlinear least-squares fitting to a first order reaction in GraFit (Erithacus Software Limited, London, England).
Buffer and substrate were the same as used for thrombin assay. A 1:100 dilution was made in the pH8.0 tris buffer to serve as the first point. Seven more dilutions from the first were made for the assay.

Assay [12] deals with T6, urokinase. In words: Urokinase inhibition assay (Ki, Example 5). In kind it is biochemical.
For assay [13], the target named is T3, Tissue Plasminogen Activator (t-PA). In words: t-PA inhibition assay (Ki, Example 5). In kind it is biochemical. As to conditions: read-out: Ki t-PA. On the procedure:
as §4

The target in assay [14] is Activated Protein C (aPC) (Homo sapiens, UniProt P04070). In words: Activated Protein C inhibition assay (Ki, Example 5). Type of assay: biochemical.
Sequence of Activated Protein C (aPC) (P04070 212-461 limits assumed): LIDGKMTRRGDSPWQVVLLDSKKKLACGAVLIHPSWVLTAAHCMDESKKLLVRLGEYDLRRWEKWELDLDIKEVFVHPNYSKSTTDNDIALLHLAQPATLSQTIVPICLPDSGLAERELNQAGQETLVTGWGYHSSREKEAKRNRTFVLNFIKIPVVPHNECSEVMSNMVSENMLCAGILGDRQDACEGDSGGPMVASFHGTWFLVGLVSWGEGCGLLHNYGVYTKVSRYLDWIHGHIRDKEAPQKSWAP
Sequence of Activated Protein C (aPC) (P04070 43-197 limits assumed): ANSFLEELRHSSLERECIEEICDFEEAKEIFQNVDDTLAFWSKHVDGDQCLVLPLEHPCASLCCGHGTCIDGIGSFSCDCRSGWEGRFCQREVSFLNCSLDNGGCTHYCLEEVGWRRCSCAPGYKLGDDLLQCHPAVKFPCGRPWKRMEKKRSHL
Assay [15] addresses T4, Plasmin. In words: Plasmin inhibition assay (Ki, Example 5). Type of assay: biochemical, bovine. On the procedure:
as §4

Assay [16] concerns the target tryptase (Homo sapiens, UniProt Q15661). In words: Tryptase inhibition assay (Ki, Example 5). In kind it is biochemical.
Assay [17] addresses T9, trypsin (Bos taurus, UniProt P00760).
T9 sequence (P00760 24-246): T5 sequence (P00760 24-246)
In words: Trypsin inhibition assay (Ki, Example 5). Type of assay: biochemical, bovine. How it is done:
as §4

The target of assay [18] is Factor XI (Homo sapiens, UniProt P03951). In words: Factor XI inhibition assay (Ki, Example 8). In kind it is biochemical. On the procedure: as §4
Sequence of Factor XI (P03951 388-625 limits assumed): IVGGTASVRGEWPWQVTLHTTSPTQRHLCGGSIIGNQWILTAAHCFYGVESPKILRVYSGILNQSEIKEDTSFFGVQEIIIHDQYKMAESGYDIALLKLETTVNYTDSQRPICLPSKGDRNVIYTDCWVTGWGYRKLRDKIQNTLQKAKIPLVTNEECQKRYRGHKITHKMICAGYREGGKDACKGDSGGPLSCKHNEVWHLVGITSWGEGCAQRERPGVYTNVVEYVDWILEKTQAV
Sequence of Factor XI (P03951 19-387 limits assumed): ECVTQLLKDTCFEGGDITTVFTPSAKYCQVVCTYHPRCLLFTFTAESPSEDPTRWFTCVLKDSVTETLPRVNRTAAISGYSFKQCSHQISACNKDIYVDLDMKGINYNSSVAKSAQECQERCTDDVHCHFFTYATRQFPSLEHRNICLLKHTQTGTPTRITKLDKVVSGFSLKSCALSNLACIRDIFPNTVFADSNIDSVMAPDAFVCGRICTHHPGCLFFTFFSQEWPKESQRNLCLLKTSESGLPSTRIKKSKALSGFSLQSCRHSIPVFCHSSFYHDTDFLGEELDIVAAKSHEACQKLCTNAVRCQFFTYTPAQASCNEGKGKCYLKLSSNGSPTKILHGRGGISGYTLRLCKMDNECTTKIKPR
Factor XI. The same buffer was utilized in this assay as in the thrombin assay. […] From this 100 μM solution, seven serial 1:5 dilutions were made in buffer for assay.

Assay [19] addresses thrombin (Bos taurus, UniProt P00735). In words: Thrombin inhibition assay (Ki, Example 5). Also on record: thrombin; bovine plasma; 0.66; from tissue; host or cells: bovine plasma. In kind it is biochemical, bovine. How it is done:
as §4
Seven sequential dilutions were made from the first point for the assay.

pIC50, pKi: −log10 of the molar value. Several values for one entry are separate records, joined by “and”; a condition that tells them apart may be missing. Equal entries are not always repeated.

T4 sequence (P06868 584-812 limits assumed): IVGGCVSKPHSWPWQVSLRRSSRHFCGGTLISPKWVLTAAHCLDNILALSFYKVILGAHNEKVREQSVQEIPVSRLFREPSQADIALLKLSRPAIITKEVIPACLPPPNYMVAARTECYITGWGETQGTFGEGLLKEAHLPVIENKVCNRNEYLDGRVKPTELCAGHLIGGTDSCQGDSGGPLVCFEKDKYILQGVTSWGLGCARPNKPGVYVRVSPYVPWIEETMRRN
T4 sequence (P06868 104-583 limits assumed): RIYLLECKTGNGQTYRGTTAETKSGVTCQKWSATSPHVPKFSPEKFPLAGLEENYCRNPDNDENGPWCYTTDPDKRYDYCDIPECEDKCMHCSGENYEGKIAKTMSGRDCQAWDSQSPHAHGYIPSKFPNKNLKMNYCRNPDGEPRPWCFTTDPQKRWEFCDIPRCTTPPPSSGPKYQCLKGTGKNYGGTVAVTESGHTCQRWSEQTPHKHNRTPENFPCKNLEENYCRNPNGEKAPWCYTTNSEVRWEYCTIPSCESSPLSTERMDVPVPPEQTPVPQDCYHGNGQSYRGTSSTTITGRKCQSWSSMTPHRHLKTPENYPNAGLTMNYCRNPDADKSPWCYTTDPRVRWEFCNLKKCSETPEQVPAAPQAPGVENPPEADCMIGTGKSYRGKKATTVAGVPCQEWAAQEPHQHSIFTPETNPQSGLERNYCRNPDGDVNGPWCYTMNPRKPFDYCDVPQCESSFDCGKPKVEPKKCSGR
Sequence of tryptase (Q15661 31-275): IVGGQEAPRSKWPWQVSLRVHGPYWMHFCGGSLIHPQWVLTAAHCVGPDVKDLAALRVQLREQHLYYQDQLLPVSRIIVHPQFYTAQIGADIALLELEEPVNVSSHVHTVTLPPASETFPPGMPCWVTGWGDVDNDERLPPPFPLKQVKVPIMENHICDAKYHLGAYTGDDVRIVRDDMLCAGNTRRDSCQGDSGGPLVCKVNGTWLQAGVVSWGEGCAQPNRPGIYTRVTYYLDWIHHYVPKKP
T3 sequence (P00750 36-562): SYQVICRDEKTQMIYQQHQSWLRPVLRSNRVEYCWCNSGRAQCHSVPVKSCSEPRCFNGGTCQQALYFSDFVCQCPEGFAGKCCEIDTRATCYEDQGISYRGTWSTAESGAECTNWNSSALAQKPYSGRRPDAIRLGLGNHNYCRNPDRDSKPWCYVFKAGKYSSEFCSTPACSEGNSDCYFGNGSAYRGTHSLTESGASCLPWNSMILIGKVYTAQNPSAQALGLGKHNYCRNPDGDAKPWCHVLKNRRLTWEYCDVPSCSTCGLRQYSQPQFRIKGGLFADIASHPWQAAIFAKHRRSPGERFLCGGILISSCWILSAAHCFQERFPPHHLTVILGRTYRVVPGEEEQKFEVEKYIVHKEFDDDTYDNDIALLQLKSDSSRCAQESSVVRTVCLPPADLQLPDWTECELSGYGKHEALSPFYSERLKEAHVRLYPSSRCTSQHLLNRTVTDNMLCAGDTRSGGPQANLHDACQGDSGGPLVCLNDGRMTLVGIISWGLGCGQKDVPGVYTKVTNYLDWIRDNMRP
Sequence of factor VII (P08709 213-466 limits assumed): as the sequence (P08709 213-466 limits assumed) above
Sequence of factor VII (P08709 61-212 limits assumed): as the sequence (P08709 61-212 limits assumed) above
Sequence of factor VII (P13726 33-295 partner): as the sequence (P13726 33-295 partner) above
T1 sequence (P08709 213-466 limits assumed): as the sequence (P08709 213-466 limits assumed) above
T1 sequence (P08709 61-212 limits assumed): as the sequence (P08709 61-212 limits assumed) above
T1 sequence (P13726 33-295 partner): as the sequence (P13726 33-295 partner) above
Sequence of factor X (P00743 234-492 limits assumed): as the sequence (P00743 234-492 limits assumed) above
Sequence of factor X (P00743 41-180 limits assumed): as the sequence (P00743 41-180 limits assumed) above

For the compound `N=C(N)NCCC[C@H](NC(=O)[C@@H]1CCCN1C(=O)[C@H](N)Cc1ccccc1)C(=O)CCl` [PPACK, reference compound], the negative logarithm of the IC50 (pIC50) in assay [1] was 6.70; in [2] it was 6.78; in assay [3], […]; in assay [4] it was […]; in assay [5] it was 6.67; in [7], […]. In addition, the PT was […] in assay [6] (Concentration 500 pM); 18 s in assay [6] (Concentration 1 nM); 22 s in [6] (Concentration 10 nM); […] in [6] (Concentration 20 nM); 28 s in assay [6] (Concentration 40 nM); 30 s in [6] (Concentration 60 nM). The compound further displayed a PT in [6] (Concentration 80 nM) of 31 s.
Turning to `N=C(N)NCCC[C@H](NC(=O)[C@@H]1CCN2CC[C@@](N)(Cc3ccccc3)C(=O)N12)C(=O)Nc1ccc([N+](=O)[O-])cc1` [Structure 11b], the kcat in assay [8] (substrate hydrolysis, pH 8.4 Tris, 37° C.) was 50 s⁻¹. The “Activity compared to the control (D)FPR-PNA” value in assay [8] (thrombin, ratio of kcat/KM) was found to be 0.76; in [9], 1.38.
With `N=C(N)NCCC[C@H](NC(=O)[C@@H]1CC[C@@H]2CC[C@@](N)(Cc3ccccc3)C(=O)N21)C(=O)c1nc2ccccc2s1` [Structure 29b], the pKi in assay [10] was 6.70; in [11], 7.77; in [12], 6.47; in assay [13] it was 7.03; in [14], 5.90; in assay [15], 6.60. Further, the pKi in assay [16] was 8.05; in assay [17] it was 9.70 and 9.64; in assay [18], 7.12; in assay [19] it was 10.07.

What is called pIC50 is −log10 of the IC50, conventionally taken in molar units. A higher pIC50 goes with a small IC50. Broadly, the kcat is the maximal rate divided by the concentration of active sites. In general, pKi refers to −log10 of the Ki, conventionally taken in molar units.
